According to article PMC3108470 (Journal of Medicinal Chemistry, 2011):

Legend:
[1] = test system: guinea pig ileum longitudinal smooth muscle; test: Relaxant activity on K+-depolarized
ΔF508-CFTR = ΔF508-CFTR (Homo sapiens, UniProt P13569, DEL508-508); test: ΔF508-CFTR potentiator assay, HS-YFP fluorescence quenching; assay type: cell-based; settings: for nH (Hill coefficient): FRT cells, forskolin 20 μM, Hill fit; for activity on ΔF508-CFTR: inactive up to 20 μM
guinea pig left atrium [2] = test: Negative inotropic activity in isolated left atrium driven at 1 Hz
guinea pig right atrium = settings: cited from earlier work; for intrinsic activity, chronotropic effect: at the highest concentration studied
guinea pig left atrium [3] = settings: cited from earlier work; for intrinsic activity, inotropic effect: at the highest concentration studied
guinea pig aortic strip = test: Vasorelaxant activity, calcium-induced contraction of K+-depolarized; settings: result in words

Row | SMILES | nH (Hill coefficient) (ΔF508-CFTR) | activity on ΔF508-CFTR (ΔF508-CFTR) | also measured
1 | COC(=O)C1=C(C)NC(C)=C(C(=O)OC)C1c1c(-c2ccccc2)nc2n1CCS2 [Compound 23, Dimethyl 2,6-Dimethyl-4-(6-phenyl-2,3-dihydroimidazo[2,1-b]thiazol-5-yl)-1,4-dihydropyridine-3,5-dicarboxylate] | – | inactive ^b | –
2 | C=CCOC(=O)C1=C(C)NC(C)=C(C(=O)OCC=C)C1c1c(-c2cc(OC)ccc2OC)nc2sccn12 [Compound 24, Diallyl 4-(6-(2,5-Dimethoxyphenyl)imidazo[2,1-b]thiazol-5-yl)-2,6-dimethyl-1,4-dihydropyridine-3,5-dicarboxylate] | – | inactive ^b | –
3 | CCOC(=O)C1=C(C)NC(C)=C(C(=O)OCC)C1c1c(Cl)nc2sc(C)cn12 [Compound 25, Diethyl 4-(6-Chloro-2-methylimidazo[2,1-b]thiazol-5-yl)-2,6-dimethyl-1,4-dihydropyridine-3,5-dicarboxylate] | 0.86 | – | GPILSM relaxant potency, times less potent than nifedipine [1]: about 65 times
4 | COC(=O)C1=C(C)NC(C)=C(C(=O)OC)C1c1c(C(F)(F)F)nc2sc(C)cn12 [Compound 28] | 0.88 | – | GPILSM relaxant potency, times less potent than nifedipine [1]: about 65 times; intrinsic activity, chronotropic effect (guinea pig right atrium): < 40%; intrinsic activity, inotropic effect (guinea pig left atrium [3]): less than 50%
5 | COC(=O)C1=C(C)NC(C)=C(C(=O)OC)C1c1c(C)nc2sc(Cl)cn12 [Compound 29] | 1.55 | – | negative inotropic effect, times greater than that of nifedipine (guinea pig left atrium [2]): about 2.6 times
6 | COC(=O)C1=C(C)NC(C)=C(C(=O)OC)C1c1c(C)nc2sc(C)cn12 [Compound 30] | – | inactive ^b | intrinsic activity, chronotropic effect (guinea pig right atrium): < 40%; intrinsic activity, inotropic effect (guinea pig left atrium [3]): less than 50%
7 | COC(=O)C1=C(C)NC(C)=C(C(=O)OC)C1c1c(Cl)nc2sc(Cl)cn12 [Compound 31] | 1.04 | – | negative inotropic effect, times greater than that of nifedipine (guinea pig left atrium [2]): about 2.6 times
8 | COC(=O)C1=C(C)NC(C)=C(C(=O)OC)C1c1c(Cl)nc2sc(C)cn12 [Compound 32] | – | inactive ^b | –
9 | COC(=O)C1=C(C)NC(C)=C(C(=O)OC)C1c1c(Cl)nc2scc(C)n12 [Compound 33] | 0.82 | – | negative inotropic effect, times greater than that of nifedipine (guinea pig left atrium [2]): about 2.6 times
10 | COC(=O)C1=C(C)NC(C)=C(C(=O)OC)C1c1c(Cl)nc2sc(C)c(C)n12 [Compound 34] | 1.32 | – | –
11 | COC(=O)C1=C(C)NC(C)=C(C(=O)OC)C1c1c(-c2ccccc2OC)nc2sccn12 [Compound 35] | – | inactive ^b | –
12 | COC(=O)C1=C(C)NC(C)=C(C(=O)OC)C1c1c(-c2cc(OC)ccc2OC)nc2sc(C)cn12 [Compound 40] | – | inactive ^b | –
13 | COC(=O)C1=C(C)NC(C)=C(C(=O)OC)C1c1c(-c2cc(OC)ccc2OC)nc2sc(Cl)cn12 [Compound 41] | – | inactive ^b | –
14 | CCc1cn2c(C3C(C(=O)OC)=C(C)NC(C)=C3C(=O)OC)c(-c3cc(OC)ccc3OC)nc2s1 [Compound 42] | – | inactive ^b | –
15 | COC(=O)C1=C(C)NC(C)=C(C(=O)OC)C1c1c(-c2ccc(OC)c(OC)c2)nc2sccn12 [Compound 43] | – | inactive ^b | –
16 | COC(=O)C1=C(C)NC(C)=C(C(=O)OC)C1c1c(-c2cc(OC)c(OC)c(OC)c2)nc2sc(Cl)cn12 [Compound 44] | – | inactive ^b | intrinsic activity, chronotropic effect (guinea pig right atrium): < 40%; intrinsic activity, inotropic effect (guinea pig left atrium [3]): less than 50%
17 | COC(=O)C1=C(C)NC(C)=C(C(=O)OC)C1c1c(-c2cc(OC)c([N+](=O)[O-])cc2OC)nc2sc(Cl)cn12 [Compound 45] | – | inactive ^b | GPILSM relaxant potency, times less potent than nifedipine [1]: about 65 times; EC50 (guinea pig right atrium; read-out: EC50 of chronotropic negative activity, Probit analysis, ref RS1): 18.5 µM
18 | COC(=O)C1=C(C)NC(C)=C(C(=O)OC)C1c1c(-c2c(OC)ccc(OC)c2[N+](=O)[O-])nc2sccn12 [Compound 46] | – | inactive ^b | –
19 | COC(=O)C1=C(C)NC(C)=C(C(=O)OC)C1c1c(-c2cc(OC)c(OC)cc2[N+](=O)[O-])nc2sccn12 [Compound 47] | – | inactive ^b | –
20 | CCOC(=O)C1=C(C)NC(C)=C(C(=O)OCC)C1c1cccc(Oc2ccccc2)c1 [Compound 48, reference compound] | 0.97 | – | –
21 | C=CCOC(=O)C1=C(C)NC(C)=C(C(=O)OCC=C)C1c1ccc(C(C)(C)C)cc1 [Compound 49, reference compound] | 3.58 | – | –
22 | C=CCOC(=O)C1=C(C)NC(C)=C(C(=O)OCC=C)C1/C=C/c1ccccc1OC [Compound 50, reference compound] | 1.18 | – | –
23 | O=c1c(-c2ccc(O)cc2)coc2cc(O)cc(O)c12 [genistein, reference compound] | 1.3 | – | vascular effect in K+-depolarized (80 mM) vascular smooth muscle (guinea pig aortic strip): inactive; inotropic activity (guinea pig left atrium [3]; up to 10 μM): positive inotropic activity
24 | COC(=O)C1=C(C)NC(C)=C(C(=O)OC)C1c1ccccc1[N+](=O)[O-] [nifedipine, reference compound] | 2.58 | – | potency increase in nonvascular smooth muscle compared to aortic strips ([1]; GPILSM vs aortic strips): 6 times

Now from value to compound, other results behind:

Row | nH (Hill coefficient) (ΔF508-CFTR) | activity on ΔF508-CFTR (ΔF508-CFTR) | SMILES | also measured
25 | 0.66 | – | CCOC(=O)C1=C(C)NC(C)=C(C(=O)OCC)C1c1c(C(F)(F)F)nc2sccn12 [Compound 16, Diethyl 2,6-Dimethyl-4-(6-(trifluoromethyl)imidazo[2,1-b]thiazol-5-yl)-1,4-dihydropyridine-3,5-dicarboxylate] | GPILSM relaxant potency, times less potent than nifedipine [1]: about 65 times
26 | 2.15 | – | COC(=O)C1=C(C)NC(C)=C(C(=O)OC)C1c1c(-c2ccc(C(F)(F)F)cc2)nc2sccn12 [Compound 17, Dimethyl 2,6-Dimethyl-4-(6-(4-(trifluoromethyl)phenyl)imidazo[2,1-b]thiazol-5-yl)-1,4-dihydropyridine-3,5-dicarboxylate] | GPILSM relaxant potency, times less potent than nifedipine [1]: about 3 times; negative inotropic effect, times greater than that of nifedipine (guinea pig left atrium [2]): about 2.6 times
27 | 1.69 | – | CCOC(=O)C1=C(C)NC(C)=C(C(=O)OCC)C1c1c(-c2ccc(C(F)(F)F)cc2)nc2sccn12 [Compound 18, Diethyl 2,6-Dimethyl-4-(6-(4-(trifluoromethyl)phenyl)imidazo[2,1-b]thiazol-5-yl)-1,4-dihydropyridine-3,5-dicarboxylate] | –
28 | 1.14 | – | C=CCOC(=O)C1=C(C)NC(C)=C(C(=O)OCC=C)C1c1c(-c2ccc(C(F)(F)F)cc2)nc2sc(C)c(C)n12 [Compound 19, Diallyl 4-(2,3-Dimethyl-6-(4-(trifluoromethyl)phenyl)imidazo[2,1-b]thiazol-5-yl)-2,6-dimethyl-1,4-dihydropyridine-3,5-dicarboxylate] | negative inotropic over chronotropic selectivity ratio (guinea pig left atrium [2]; EC50 chronotropic / EC50 inotropic): about 33 fold
29 | 1.8 | – | COC(=O)C1=C(C)NC(C)=C(C(=O)OC)C1c1c(-c2ccc(OC(F)(F)F)cc2)nc2sccn12 [Compound 20, Dimethyl 2,6-Dimethyl-4-(6-(4-(trifluoromethoxy)phenyl)imidazo[2,1-b]thiazol-5-yl)-1,4-dihydropyridine-3,5-dicarboxylate] | GPILSM relaxant potency, times less potent than nifedipine [1]: about 3 times
30 | 1.09 | – | C=CCOC(=O)C1=C(C)NC(C)=C(C(=O)OCC=C)C1c1c(-c2ccc(OC(F)(F)F)cc2)nc2sccn12 [Compound 21, Diallyl 2,6-Dimethyl-4-(6-(4-(trifluoromethoxy)phenyl)imidazo[2,1-b]thiazol-5-yl)-1,4-dihydropyridine-3,5-dicarboxylate] | GPILSM relaxant potency, times less potent than nifedipine [1]: about 3 times
31 | 0.93 | – | CCOC(=O)C1=C(C)NC(C)=C(C(=O)OCC)C1c1c(-c2ccccc2)nc2sc(C)cn12 [Compound 22, Diethyl 2,6-Dimethyl-4-(2-methyl-6-phenylimidazo[2,1-b]thiazol-5-yl)-1,4-dihydropyridine-3,5-dicarboxylate] | –
32 | 0.44 | – | CCOC(=O)C1=C(C)NC(C)=C(C(=O)OCC)C1c1c(-c2ccc(Cl)c(Cl)c2Cl)nc2sccn12 [Compound 26, Diethyl 2,6-Dimethyl-4-(6-(2,3,4-trichlorophenyl)imidazo[2,1-b]thiazol-5-yl)-1,4-dihydropyridine-3,5-dicarboxylate] | GPILSM relaxant potency, times less potent than nifedipine [1]: about 65 times
33 | 1.89 | – | COC(=O)C1=C(C)NC(C)=C(C(=O)OC)C1c1c(C(F)(F)F)nc2sccn12 [Compound 27] | –
34 | 1.5 | – | COC(=O)C1=C(C)NC(C)=C(C(=O)OC)C1c1c(-c2cccc(OC)c2)nc2sccn12 [Compound 36] | GPILSM relaxant potency, times less potent than nifedipine [1]: about 65 times
35 | – | inactive ^b | COC(=O)C1=C(C)NC(C)=C(C(=O)OC)C1c1c(-c2ccccc2OC(F)(F)F)nc2sccn12 [Compound 37] | –
36 | 0.81 | – | COC(=O)C1=C(C)NC(C)=C(C(=O)OC)C1c1c(-c2cccc(OC(F)(F)F)c2)nc2sccn12 [Compound 38] | GPILSM relaxant potency, times less potent than nifedipine [1]: about 65 times
37 | 1.01 | – | COC(=O)C1=C(C)NC(C)=C(C(=O)OC)C1c1c(-c2cccc(C(F)(F)F)c2)nc2sccn12 [Compound 39] | GPILSM relaxant potency, times less potent than nifedipine [1]: about 65 times
